Source: patent publication US20110112151A1, “COMPOUND CAPABLE OF INHIBITING 11-BETA HYDROXYSTERIOD DEHYDROGENASE” (priority 2008, published 2011)
Where two headings read alike, the source gives them in different places.

What was measured:
11β-HSD1 = target: T1, 11β-HSD1 (Homo sapiens, UniProt P28845); experiment: 11β-HSD1 HEK assay (cell based assay, SPA)
T1 construct: expressed in transfected cells; host or cells: HEK 293 (stably transfected, HEK 293/HSD11B1)
Experimental: 11β-HSD1 HEK Assay Protocol (Cell Based Assay)
11β-HSD1 activity is measured in whole HEK 293 cells stably transfected with the HSD11B1 gene. Cells are incubated in 96-well microplates in the presence of tritiated substrate. Enzyme activity is determined by measuring the amount of tritated product by scintillation proximity assay (SPA). Assay plates contain internal high and low controls to allow calculation of percentage inhibition.
1. […] 2. When the cells are 80% confluent the medium is removed from each well. 100 μl fresh, serum-free, medium containing ^3H-cortisone and test compound in 1% DMSO is added to each well*. Control wells are also dispensed. […] 3. The plate is incubated at 37° C. for the required time period. 4. 50 μl of media is removed from each well and transferred to a microplate containing 100 μl of a pre-incubated mixture of anti-cortisol antibody and SPA bead. The mixture is incubated with gentle shaking until equilibrium is reached, before transferring to a scintillation counter to establish the enzyme activity in each sample.
10 μl of compound is dispensed into each well of a 96-well microplate in 10% DMSO at 100 μM concentration. 90 μl media containing ^3H-cortisone is added to each well. The compound/media/substrate mixture is then transferred to the assay plate containing the cells. […]

[1] = HEK293, at 1 μM, whole HEK 293 cells stably transfected with the HSD11B1 gene, 3H-cortisone substrate, read-out: Activity (inhibition of 11β-HSD1)

T1 sequence (P28845 whole entry): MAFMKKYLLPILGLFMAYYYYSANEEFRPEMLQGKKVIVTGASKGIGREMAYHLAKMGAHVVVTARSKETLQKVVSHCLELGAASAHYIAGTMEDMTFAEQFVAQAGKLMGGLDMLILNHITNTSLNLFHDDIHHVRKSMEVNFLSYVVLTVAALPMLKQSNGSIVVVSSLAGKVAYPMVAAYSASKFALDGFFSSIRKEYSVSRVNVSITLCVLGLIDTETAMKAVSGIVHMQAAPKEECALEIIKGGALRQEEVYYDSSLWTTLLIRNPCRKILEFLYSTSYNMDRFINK

| melting point [°C] | inhibition at 1 µM (11β-HSD1; [1]) [%] | SMILES | inhibition at 1 µM (11β-HSD1; HEK293, read-out: Activity (inhibition of 11β-HSD1)) [%] |
| --- | --- | --- | --- |
| 45 to 47 | > 60 | O=C(CSCc1cccnc1)C12CC3CC(CC(C3)C1)C2 [Example 7, 1-Adamantan-1-yl-2-(pyridin-3-ylmethylsulfanyl)-ethanone] | – |
| 116 to 119 | > 60 | O=C(C[S+]([O-])Cc1cccnc1)C12CC3CC(CC(C3)C1)C2 (stereo not shown) [Example 8, 1-Adamantan-1-yl-2-(pyridin-3-ylmethanesulfinyl)-ethanone] | – |
| 38 to 39 | > 60 | O=C(CSCc1ccccn1)C12CC3CC(CC(C3)C1)C2 [Example 11, 1-Adamantan-1-yl-2-(pyridin-2-ylmethylsulfanyl)-ethanone] | – |
| 87 to 88.5 | > 60 | O=C(C[S+]([O-])Cc1ccccn1)C12CC3CC(CC(C3)C1)C2 (stereo not shown) [Example 17, 1-Adamantan-1-yl-2-(pyridin-2-ylmethanesulfinyl)-ethanone] | – |
| 115.5 to 116.5 | > 60 | Cc1cccc(SCC(=O)C23CC4CC(CC(C4)C2)C3)n1 [Example 26, 1-Adamantan-1-yl-2-(6-methyl-pyridin-2-ylsulfanyl)-ethanone] | – |
| 114 to 115 | > 60 | O=C(CSc1ccncc1)C12CC3CC(CC(C3)C1)C2 [Example 27, 1-Adamantan-1-yl-2-(pyridin-4-ylsulfanyl)-ethanone] | – |
| 143 to 144 | > 60 | O=C(CS(=O)(=O)c1ccncc1)C12CC3CC(CC(C3)C1)C2 [Example 32, 1-(adamantan-1-yl)-2-(pyridine-4-sulfonyl)ethan-1-one] | – |
| 43 to 44.5 | > 60 | O=C(CCc1cccnc1)C12CC3CC(CC(C3)C1)C2 [Example 39, 1-Adamantan-1-yl-3-pyridin-3-yl-propan-1-one] | – |
| 73 to 75 | > 60 | O=C(COc1cccnc1)C12CC3CC(CC(C3)C1)C2 [Example 61, 1-Adamantan-1-yl-2-(pyridin-3-yloxy)-ethanone] | – |
| 88 to 90 | 20 to 60 | O=C(CSCc1ccc(Cl)nc1)C12CC3CC(CC(C3)C1)C2 [Example 62, 1-Adamantan-1-yl-2-(6-chloro-pyridin-3-ylmethylsulfanyl)-ethanone] | – |
| – | > 60 | O=C(CSCc1ccncc1)C12CC3CC(CC(C3)C1)C2 [Example 81, 1-Adamantan-1-yl-2-(pyridin-4-ylmethylsulfanyl)-ethanone] | – |
| – | > 60 | O=C(CS(=O)(=O)Cc1ccncc1)C12CC3CC(CC(C3)C1)C2 [Example 83, 1-Adamantan-1-yl-2-(pyridin-4-ylmethanesulfonyl)-ethanone] | – |

Continued, compound first:

| SMILES | melting point [°C] | inhibition at 1 µM (11β-HSD1; [1]) [%] | inhibition at 1 µM (11β-HSD1; HEK293, read-out: Activity (inhibition of 11β-HSD1)) [%] |
| --- | --- | --- | --- |
| O=C(CS(=O)(=O)Cc1ccc[n+]([O-])c1)C12CC3CC(CC(C3)C1)C2 [Example 10, 1-Adamantan-1-yl-2-(1-oxy-pyridin-3-ylmethanesulfonyl)-ethanone] | 182 to 183.5 | > 60 | – |
| Cn1c(SCC(=O)C23CC4CC(CC(C4)C2)C3)nc2ccccc21 [Example 14, 1-Adamantan-1-yl-2-(1-methyl-1H-benzoimidazol-2-ylsulfanyl)-ethanone] | 146 to 147.5 | < 20 | – |
| Cn1ccnc1[S+]([O-])C(C)(C)C(=O)C12CC3CC(CC(C3)C1)C2 (stereo not shown) [Example 15, 1-Adamantan-1-yl-2-methyl-2-(1-methyl-1H-imidazole-2-sulfinyl)-propan-1-one] | 98 to 102 | < 20 | – |
| O=C(O)c1ccc(SCC(=O)C23CC4CC(CC(C4)C2)C3)nc1 [Example 29, 6-(2-Adamantan-1-yl-2-oxo-ethylsulfanyl)-nicotinic acid] | 174 to 176 | > 60 | – |
| Cc1cccc([S+]([O-])CC(=O)C23CC4CC(CC(C4)C2)C3)n1 (stereo not shown) [Example 31, 1-(adamantan-1-yl)-2-[(6-methylpyridine-2-)sulfinyl]ethan-1-one] | 75 to 76 | > 60 | – |
| CCNC(=O)c1ccc(SCC(=O)C23CC4CC(CC(C4)C2)C3)nc1 [Example 34, 6-{[2-(adamantan-1-yl)-2-oxoethyl]sulfanyl}-N-ethylpyridine-3-carboxamide] | 135.5 to 137 | > 60 | – |
| CN(C)C(=O)c1ccc(SCC(=O)C23CC4CC(CC(C4)C2)C3)nc1 [Example 35, 6-(2-Adamantan-1-yl-2-oxo-ethylsulfanyl)-N,N-dimethyl-nicotinamide] | 62.5 to 64.5 | > 60 | – |
| CNC(=O)c1ccc(SCC(=O)C23CC4CC(CC(C4)C2)C3)nc1 [Example 36, 6-(2-Adamantan-1-yl-2-oxo-ethylsulfanyl)-N-methyl-nicotinamide] | 184 to 185.5 | > 60 | – |
| O=C(/C=C/c1cccnc1)C12CC3CC(CC(C3)C1)C2 [Example 38, 1-Adamantan-1-yl-3-pyridin-3-yl-propenone] | 107 to 108.5 | > 60 | – |
| Cn1cnnc1[S+]([O-])CC(=O)C12CC3CC(CC(C3)C1)C2 (stereo not shown) [Example 63, 1-Adamantan-1-yl-2-(4-methyl-4H-[1,2,4]triazole-3-sulfinyl)-ethanone] | 124.5 to 127 | > 60 | – |
| O=C(CS(=O)(=O)Cc1ccc(Cl)nc1)C12CC3CC(CC(C3)C1)C2 [Example 64, 1-Adamantan-1-yl-2-(6-chloro-pyridin-3-ylmethanesulfonyl)-ethanone] | 159 to 161 | > 60 | – |
| O=C(CSc1ccc(C(F)(F)F)cn1)C12CC3CC(CC(C3)C1)C2 [Example 66, 1-Adamantan-1-yl-2-(5-trifluoromethyl-pyridin-2-ylsulfanyl)-ethanone] | 141 to 142 | > 60 | – |
| O=C(CS(=O)(=O)c1ccc(C(F)(F)F)cn1)C12CC3CC(CC(C3)C1)C2 [Example 67, 1-Adamantan-1-yl-2-(5-trifluoromethyl-pyridine-2-sulfonyl)-ethanone] | 138 to 139 | 20 to 60 | – |
| O=C(CS(=O)(=O)Cc1cccc[n+]1[O-])C12CC3CC(CC(C3)C1)C2 [Example 76, 1-Adamantan-1-yl-2-(1-oxy-pyridin-2-ylmethanesulfonyl)-ethanone] | 225 to 227.5 | > 60 | – |
| Cn1cnnc1S(=O)(=O)CC(=O)C12CC3CC(CC(C3)C1)C2 [Example 77, 1-Adamantan-1-yl-2-(4-methyl-4H-[1,2,4]triazole-3-sulfonyl)-ethanone] | 149 to 150 | > 60 | – |
| Cc1nnc(SCC(=O)C23CC4CC(CC(C4)C2)C3)s1 [Example 78, 1-Adamantan-1-yl-2-(5-methyl-[1,3,4]thiadiazol-2-ylsulfanyl)-ethanone] | 102 to 105 | – | > 60 |
| Cc1nnc([S+]([O-])CC(=O)C23CC4CC(CC(C4)C2)C3)s1 (stereo not shown) [Example 80, 1-Adamantan-1-yl-2-(5-methyl-[1,3,4]thiadiazole-2-sulfinyl)-ethanone] | – | > 60 | – |
| Cc1cc(C)c(C(=O)C[S+]([O-])c2ccccn2)c(C)c1 (stereo not shown) [Example 82, 1-mesityl-2-(pyridin-2-ylsulfinyl)ethanone] | – | < 20 | – |
| COc1ccncc1COCC(=O)C12CC3CC(CC(C3)C1)C2 [Example 85, 2-((4-methoxypyridin-3-yl)methoxy)-1-adamantylethanone] | – | > 60 | – |
| COc1cccnc1COCC(=O)C12CC3CC(CC(C3)C1)C2 [Example 86, 2-((3-Methoxypyridin-2-yl)methoxy)-1-adamantylethanone] | – | > 60 | – |
| CC(=O)Nc1nnc(S(=O)(=O)CC(=O)C23CC4CC(CC(C4)C2)C3)s1 [Example 93, N-(5-{[2-(Adamantan-1-yl)-2-oxoethane]sulfonyl}-1,3,4-thiadiazol-2-yl)acetamide] | – | > 60 | – |
| COc1cncc(COCC(=O)C23CC4CC(CC(C4)C2)C3)c1 [Example 98, 1-Adamantan-1-yl-2-(5-methoxy-pyridin-3-ylmethoxy)-ethanone] | – | > 60 | – |
| Cn1cnnc1SCC(=O)C(C)(C)c1ccc(Cl)cc1 [Example 99, 3-(4-Chlorophenyl)-3-methyl-1-(4-methyl-4H-1,2,4-triazol-3-ylthio)butan-2-one] | – | 20 to 60 | – |
| Cn1cnnc1SCC(=O)C1(c2ccc(Cl)cc2)CC1 [Example 100, 1-(1-(4-Chlorophenyl)cyclopropyl)-2-(4-methyl-4H-1,2,4-triazol-3-ylthio)ethanone] | – | 20 to 60 | – |
| Cn1cnnc1SCC(=O)C1(c2ccc(Cl)cc2)CCC1 [Example 108, 1-(1-(4-Chlorophenyl)cyclobutyl)-2-(4-methyl-4H-1,2,4-triazol-3-ylthio)ethanone] | – | 20 to 60 | – |
| Cn1cnnc1[S+]([O-])CC(=O)C1(c2ccc(Cl)cc2)CCC1 (stereo not shown) [Example 109, 1-(1-(4-Chlorophenyl)cyclobutyl)-2-(4-methyl-4H-1,2,4-triazol-3-ylsulfinyl)ethanone] | – | < 20 | – |
